Assay results published in the NIST ThermoML archive (doi:10.1016/j.jct.2017.02.014).

Experiments:
[1] = refractive index (other wavelength) (dimensionless); xn = mol fraction of the nth substance listed; conditions: 100 kPa, Liquid, Wavelength=632.8 nm, minimum deviation angle method
[2] = heat capacity at constant pressure per volume; xn = mol fraction of the nth substance listed; conditions: 102.6 kPa, Liquid, DSC, x1 = 0.118

CCCC[n+]1ccccc1.F[B-](F)(F)F [1-butylpyridinium tetrafluoroborate] + CCO
[1]
Conditions	refractive index
281.73 K, x1 = 1	1.4481
282.78 K, x1 = 1	1.4478
284.05 K, x1 = 0.518	1.4307
284.14 K, x1 = 1	1.4475
284.68 K, x1 = 0.394	1.4224
285.33 K, x1 = 0.518	1.4304
285.74 K, x1 = 1	1.4471
286.42 K, x1 = 0.394	1.4219
286.94 K, x1 = 1	1.4468
287.46 K, x1 = 0.02	1.3684
287.51 K, x1 = 0.518	1.4298
287.68 K, x1 = 0.394	1.4215
288.24 K, x1 = 1	1.4464
288.69 K, x1 = 0.518	1.4295
288.71 K, x1 = 0.02	1.3679
289.37 K, x1 = 0.394	1.4211
289.38 K, x1 = 1	1.4461
289.82 K, x1 = 0.02	1.3675
290.14 K, x1 = 0.518	1.429
290.31 K, x1 = 0.394	1.4207
290.37 K, x1 = 1	1.4458
290.46 K, x1 = 0.313	1.414
291.26 K, x1 = 0.02	1.3669
291.42 K, x1 = 0.394	1.4204
291.42 K, x1 = 0.518	1.4287
292.08 K, x1 = 0.313	1.4134
292.15 K, x1 = 1	1.4454
292.64 K, x1 = 0.02	1.3663
293.1 K, x1 = 0.313	1.4131
293.41 K, x1 = 1	1.4451
294.23 K, x1 = 0.313	1.4128
294.38 K, x1 = 0.02	1.3657
295 K, x1 = 1	1.4446
295.32 K, x1 = 0.313	1.4124
296.19 K, x1 = 0.258	1.4062
296.35 K, x1 = 0.199	1.3993
296.35 K, x1 = 0.313	1.4121
296.89 K, x1 = 1	1.444
296.98 K, x1 = 0.06	1.3745
296.98 K, x1 = 0.142	1.3902
297.25 K, x1 = 0.095	1.3817
297.52 K, x1 = 0.258	1.4056
298.06 K, x1 = 0.142	1.3899
298.21 K, x1 = 0.06	1.374
298.51 K, x1 = 0.199	1.3986
298.56 K, x1 = 0.095	1.3813
298.9 K, x1 = 0.258	1.4052
299.34 K, x1 = 0.142	1.3895
299.43 K, x1 = 0.06	1.3736
299.58 K, x1 = 0.199	1.3982
299.67 K, x1 = 0.095	1.3809
299.98 K, x1 = 0.258	1.4048
300.34 K, x1 = 0.142	1.3892
300.79 K, x1 = 0.095	1.3805
300.89 K, x1 = 0.06	1.3731
300.95 K, x1 = 0.258	1.4046
301.1 K, x1 = 0.199	1.3977
301.77 K, x1 = 0.095	1.3802
301.77 K, x1 = 0.142	1.3886
301.92 K, x1 = 0.258	1.4043
302.08 K, x1 = 0.06	1.3726
302.16 K, x1 = 0.199	1.3974
302.93 K, x1 = 0.095	1.3798
302.94 K, x1 = 0.142	1.3883
303.3 K, x1 = 0.199	1.397
303.31 K, x1 = 0.06	1.3722

[2]
Conditions	heat capacity [J/K/m3]
291.64 K	2400000
291.84 K	2413000
292.04 K	2409000
292.24 K	2412000
292.44 K	2447000
292.64 K	2446000
292.84 K	2430000
293.04 K	2446000
293.24 K	2456000
293.44 K	2452000
293.64 K	2454000
293.84 K	2466000
294.04 K	2479000
294.24 K	2512000
294.44 K	2465000
294.64 K	2512000
294.84 K	2537000
295.04 K	2539000
295.24 K	2557000
295.44 K	2564000
295.64 K	2619000
295.84 K	2578000
296.04 K	2655000
296.24 K	2606000
296.44 K	2659000
296.64 K	2847000
296.86 K	2825000
297.04 K	2338000
297.24 K	2271000
297.44 K	2220000
297.64 K	2228000
297.84 K	2203000
298.04 K	2201000
298.24 K	2198000
298.44 K	2180000
298.64 K	2187000
298.84 K	2145000
299.04 K	2169000
299.24 K	2164000
299.44 K	2169000
299.64 K	2152000
299.84 K	2153000
300.04 K	2150000
300.24 K	2151000
300.44 K	2144000
300.64 K	2130000
300.84 K	2137000
301.24 K	2132000
301.44 K	2139000
301.64 K	2140000
301.84 K	2124000
302.04 K	2130000
302.24 K	2117000
302.44 K	2124000
302.64 K	2130000
302.84 K	2122000
303.04 K	2129000
303.24 K	2131000
303.44 K	2121000
303.63 K	2121000
303.83 K	2127000
304.04 K	2126000
304.24 K	2122000
304.44 K	2130000
304.63 K	2120000
304.83 K	2123000
305.04 K	2117000
305.24 K	2113000
305.44 K	2107000
305.63 K	2112000
306.08 K	2110000
306.51 K	2108000
306.95 K	2108000
307.39 K	2107000
307.83 K	2106000
308.26 K	2106000
308.7 K	2105000
309.14 K	2104000
309.58 K	2104000
310.02 K	2104000
310.45 K	2104000
310.89 K	2105000
311.33 K	2103000
311.77 K	2102000
312.2 K	2102000
312.64 K	2102000
313.08 K	2103000
313.52 K	2101000
313.96 K	2103000
314.39 K	2101000
314.83 K	2103000
315.27 K	2102000
315.71 K	2103000
316.14 K	2102000
316.58 K	2103000
317.02 K	2103000
317.46 K	2103000
317.89 K	2105000
318.33 K	2104000
318.77 K	2106000
319.21 K	2105000
319.65 K	2107000
320.08 K	2107000
320.52 K	2108000
320.96 K	2109000
321.4 K	2109000
321.84 K	2109000
322.27 K	2110000
322.71 K	2111000
323.15 K	2110000
